Patent US20210361570A1, “IN SITU GELLING POLYSACCHARIDE-BASED NANOPARTICLE HYDROGEL COMPOSITIONS, AND METHODS OF USE THEREOF” (McMaster University, priority 2020, published 2021)

Columns and labels:
[1] = tested on: Sprague-Dawley rats, MK-801 model of schizophrenia; assay: MK-801 schizophrenia model, social interaction behavioral testing; type: in vivo, rat
Method: Age-matched male Sprague-Dawley rats (250-300 g, Charles River Canada, St. Constant, QC, Canada) received care that complied with protocols approved by the Animal Research Ethics Board at McMaster University and the guidelines of the Canadian Council on Animal Care. Animals were housed individually in standard cages on a reverse 12 h light cycle. Upon arrival, animals were habituated to their holding room for 1 week, followed by a week of handling (touching and petting for at least 5 minutes each, every other day) prior to any testing. Animals were handled regularly throughout the duration of all experimentation (2-3 times per week outside of experiments) and housed in a room maintained at 22° C. with 50% humidity and access to food and water ad libitum. The animal masses at the end of the experiments were between 400-550 g.
For the in situ animal injections, all drugs were dissolved in artificial cerebrospinal fluid (aCSF) solution formulated in-lab comprised of 120 mM NaCl, 4.8 mM KCl, 1.2 mM KH2PO4, 1.2 mM MgSO4, 25 mM NaHCO3, 2.5 mM CaCl2), and 10 mM D-glucose. Further, PAOPA (with or without hydrogel formulation) was administered at concentration of 0.5 mg/kg intranasally, selected based on effective concentrations observed via dose-dependent intraperitoneal (IP) administrations. The PAOPA was added equally to both the CMCh and the SNP solutions and allowed to sit for 24 h to allow for any polymer-drug interactions to occur before gelation. All precursor solutions were passed through a 0.45 µm filter (VWR) to sterilize them prior to injection into a live animal. […]
To administer the payload for the five experimental groups, a single rat was removed from its cage and placed into a closed anesthesia box with transparent sides for proper observation. Aerosolized isoflurane (with oxygen) was passed into the box until the rat was determined to be anesthetized via foot pinching reflex test. […]
Rats were assessed for social interaction with and without MK-801 and drug/formulation administration. […]

[2] = tested on: Sprague-Dawley rats, MK-801 model of schizophrenia; conditions: PAOPA 1 mg/kg IP, literature; cited from earlier work
[3] = Body weight in the in vivo anti-tumor test; design: species or system C57BL/6 mice; conditions: 5.0 mg/kg DOX tail vein every three days, ten days
Method: (§1) The antitumor effect of DOX, DOX-Clusters (control), and Dox-iClusters was evaluated by tracking the relative tumor volume (V/V0) after treatment with the nanocluster nanogels. C57BL/6 mice were injected intradermally with B16-F10 melanoma tumor cells, allowing the tumors to grow to ˜20 mm^3 by day 7 after the injections. The mice were treated by tail vein injection of 200 μL of PBS, DOX, DOX-iCluster and DOX-Cluster every three days (5.0 mg/kg of DOX for all formulations), after which both the tumor size and body weight were monitored regularly over a 10-day period.

B16-F10 melanoma tumor = assay: In vivo anti-tumor test (relative tumor volume); design: species or system C57BL/6 mice; conditions: 5.0 mg/kg DOX tail vein every three days, 10-day period
Method: as §1

[4] = L-DOPA anti-oxidation in hydrogels (visual colour); type: physicochemical; conditions: 3 mg L-DOPA, MES pH 6 or PBS pH 7.4, 12 h at 37° C.
Method: 200 μL of 25 w/v % (DS 0.5) SNP-CHO or SNP-APBA was combined with 200 μL of CMCh (pH 7) to form a 400 μL bulk hydrogel in a 12 plate well. Gels were loaded with 3 mg of L-DOPA by suspending the powered drug into the aqueous SNP precursor before gelling. The gels were submerged in 3 mL of 0.1M MES (pH 6) buffer or 10 mM PBS (pH 7.4) buffer. Oxidation of L-DOPA was assessed visually, with the formation of dark yellow-brown and black precipitates indicating L-DOPA oxidation to its dopaquinone and dopachrome polymer forms, and assessed with respect to controls of L-DOPA at the same concentration in each of the respective buffers (without a hydrogel).

C. elegans = assay: 6-OHDA Parkinsonian model, electrotaxis movement testing; type: in vivo; conditions: L-DOPA free or loaded in 25 w/v % hydrogels (DS=0.5)
Method: The stability of L-DOPA delivered using the SNP-CHO@CMCh or SNP-APBA@CMCh bulk hydrogels was assessed using an in vivo C. elegans assay. Wild-type late larval stage worms were exposed to 30 mM 6-OHDA in ascorbic acid for 1 hr to induce dopaminergic neurodegeneration. After 24 hours, worms were added to a 12-well plate in which each well contains 400 μL of SNP-CHO@CMCh or SNP-APBA@CMCh bulk hydrogel as well as E. coli (for food) to form a 3 mL liquid culture in which worms are continuously exposed to released L-DOPA.
Worms were sampled at various time points (0 h, 4 h, 8 h, 12 h, 24 h, 48 h) to assess movement. Motility changes, assessed based on the average speed of the worms in mm/s (minimum n=20 worms per sample and time point tested), were measured using an in-house voltage-induced electrotaxis microfluidic assay developed to quantify drug induced dopaminergic neuron signal-mediated movement. In addition to the test sample (Group 1), control groups of no 6-OHDA, no hydrogel (Group 2, untreated control), 6-OHDA, no hydrogel (Group 3, drug control); 6-OHDA, blank hydrogel (Group 4, material control); and 6-OHDA, drug(s) without hydrogel (Group 5, delivery vehicle control) were assessed (minimum n=20 worms/group). L-DOPA was loaded in both SNP-CHO@CMCh and SNP-APBA@CMCh 25 w/v % hydrogels (DS=0.5) at 3 or 9 […].

With NC(=O)CN1CC[C@@H](NC(=O)[C@@H]2CCCN2)C1=O [PAOPA] the social interaction deficits ([1]; 0.5 mg/kg IN 30 minutes before MK-801, assessed 30 minutes post-MK-801) was “expected attenuation of social interaction deficits”, the social interaction deficits ([1]; 0.5 mg/kg IN, MK-801 challenge 24 hours later) was “the benefits of PAOPA were no longer observed” and the “total social interaction time relative to untreated control” value ([1]; no MK-801, intranasal, PAOPA 0.5 mg/kg or unloaded hydrogel) was “neither increased nor decreased total interaction times”. For the same compound, the social interaction time [2] was “did not affect social interaction time”.
For COc1cccc2c1C(=O)c1c(O)c3c(c(O)c1C2=O)C[C@@](O)(C(=O)CO)C[C@@H]3O[C@H]1C[C@H](N)[C@H](O)[C@H](C)O1.Cl [free DOX, doxorubicin hydrochloride], the body weight [3] was “significantly reduced body weight” and the “relative tumor volume (V/V0)” value (B16-F10 melanoma tumor) was 24 × volume increase.
For N[C@@H](Cc1ccc(O)c(O)c1)C(=O)O [L-DOPA, 3,4-dihydroxy-L-phenylalanine], the “L-DOPA oxidation (colour)” value [4] was “became black with oxidation” and the “duration of improved swimming speed / motility vs 6-OHDA control” value (C. elegans) was 4 h.
